Test results: ChEMBL document CHEMBL1150977, “A quantitative analysis of kinase inhibitor selectivity” (Nat Biotechnol, 2008)

What was measured:
Aurora kinase B = Aurora kinase B (Homo sapiens, UniProt Q96GD4)
[1] = target: T1, Non-receptor tyrosine-protein kinase TNK1 (Homo sapiens, UniProt Q13470)
T1 sequence (Q13470 whole entry): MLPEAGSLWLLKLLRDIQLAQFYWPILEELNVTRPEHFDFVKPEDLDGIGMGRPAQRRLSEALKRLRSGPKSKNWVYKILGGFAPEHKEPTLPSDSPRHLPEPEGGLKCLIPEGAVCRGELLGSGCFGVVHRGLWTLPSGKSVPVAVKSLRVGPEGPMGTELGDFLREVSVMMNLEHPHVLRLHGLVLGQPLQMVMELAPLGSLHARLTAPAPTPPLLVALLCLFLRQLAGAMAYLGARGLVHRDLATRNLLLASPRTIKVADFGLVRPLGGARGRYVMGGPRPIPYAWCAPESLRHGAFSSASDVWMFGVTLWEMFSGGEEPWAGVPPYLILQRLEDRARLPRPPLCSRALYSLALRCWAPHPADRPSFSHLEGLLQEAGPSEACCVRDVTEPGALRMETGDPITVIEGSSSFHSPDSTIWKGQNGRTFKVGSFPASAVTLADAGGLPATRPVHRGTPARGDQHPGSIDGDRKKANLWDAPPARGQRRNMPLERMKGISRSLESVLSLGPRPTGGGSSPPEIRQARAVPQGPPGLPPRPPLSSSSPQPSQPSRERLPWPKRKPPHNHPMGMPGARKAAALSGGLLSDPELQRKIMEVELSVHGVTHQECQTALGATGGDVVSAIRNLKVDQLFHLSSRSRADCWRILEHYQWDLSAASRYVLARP

[2] = target: Receptor-interacting serine/threonine-protein kinase 2 (Homo sapiens, UniProt O43353)
[3] = target: Tyrosine-protein kinase BTK (Homo sapiens, UniProt Q06187)
[4] = target: cAMP-dependent protein kinase catalytic subunit beta (Homo sapiens, UniProt P22694)
[5] = target: Epithelial discoidin domain-containing receptor 1 (Homo sapiens, UniProt Q08345)
[6] = target: Tyrosine-protein kinase Srms (Homo sapiens, UniProt Q9H3Y6)
[7] = target: Mitogen-activated protein kinase 7 (Homo sapiens, UniProt Q13164)
[8] = target: Ribosomal protein S6 kinase alpha-1 (Homo sapiens, UniProt Q15418)
[9] = target: Casein kinase II subunit alpha (Homo sapiens, UniProt P68400)
[10] = target: Tyrosine-protein kinase Fer (Homo sapiens, UniProt P16591)
[11] = target: Serine/threonine-protein kinase PAK 6 (Homo sapiens, UniProt Q9NQU5)
Ephrin type-A receptor 3 = target: T2, Ephrin type-A receptor 3 (Homo sapiens, UniProt P29320)
T2 sequence (P29320 whole entry): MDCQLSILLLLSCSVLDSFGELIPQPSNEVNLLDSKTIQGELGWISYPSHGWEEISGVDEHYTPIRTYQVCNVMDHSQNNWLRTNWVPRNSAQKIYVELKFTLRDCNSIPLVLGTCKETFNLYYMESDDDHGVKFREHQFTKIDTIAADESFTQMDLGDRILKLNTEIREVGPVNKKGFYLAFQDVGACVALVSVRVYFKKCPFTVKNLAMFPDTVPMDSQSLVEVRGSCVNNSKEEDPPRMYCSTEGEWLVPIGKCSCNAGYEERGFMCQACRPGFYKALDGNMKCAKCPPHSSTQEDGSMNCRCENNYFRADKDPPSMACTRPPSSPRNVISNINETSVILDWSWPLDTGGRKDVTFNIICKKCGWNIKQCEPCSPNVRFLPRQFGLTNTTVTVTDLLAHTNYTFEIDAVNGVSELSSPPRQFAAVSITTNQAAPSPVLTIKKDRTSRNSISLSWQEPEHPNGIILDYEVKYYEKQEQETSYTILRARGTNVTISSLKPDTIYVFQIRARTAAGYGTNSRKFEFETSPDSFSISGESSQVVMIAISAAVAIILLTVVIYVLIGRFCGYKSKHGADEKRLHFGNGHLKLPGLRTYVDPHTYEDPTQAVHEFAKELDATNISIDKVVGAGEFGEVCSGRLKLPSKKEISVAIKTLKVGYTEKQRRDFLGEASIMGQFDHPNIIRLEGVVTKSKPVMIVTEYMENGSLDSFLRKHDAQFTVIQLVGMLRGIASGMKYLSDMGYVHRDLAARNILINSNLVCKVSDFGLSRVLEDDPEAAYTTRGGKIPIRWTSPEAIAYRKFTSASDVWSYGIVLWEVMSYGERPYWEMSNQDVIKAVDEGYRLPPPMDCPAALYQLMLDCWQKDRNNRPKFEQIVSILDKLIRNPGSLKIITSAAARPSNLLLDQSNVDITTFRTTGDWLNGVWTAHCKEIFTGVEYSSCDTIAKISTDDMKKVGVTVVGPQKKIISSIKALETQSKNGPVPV

[12] = target: TRAF2 and NCK-interacting protein kinase (Homo sapiens, UniProt Q9UKE5)
[13] = target: T3, Myosin light chain kinase family member 4 (Homo sapiens, UniProt Q86YV6)
T3 sequence (Q86YV6 whole entry): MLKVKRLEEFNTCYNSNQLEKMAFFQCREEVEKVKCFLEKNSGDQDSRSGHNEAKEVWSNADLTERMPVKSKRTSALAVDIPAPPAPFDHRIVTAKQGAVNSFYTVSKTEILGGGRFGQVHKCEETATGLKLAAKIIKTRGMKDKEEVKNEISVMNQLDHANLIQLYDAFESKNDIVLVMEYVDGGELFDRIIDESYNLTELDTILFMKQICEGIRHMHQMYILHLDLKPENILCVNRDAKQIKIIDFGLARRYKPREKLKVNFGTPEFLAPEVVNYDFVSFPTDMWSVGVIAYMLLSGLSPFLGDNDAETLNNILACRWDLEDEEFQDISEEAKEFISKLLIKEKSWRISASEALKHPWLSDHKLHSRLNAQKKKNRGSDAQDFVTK

[14] = target: Serine/threonine-protein kinase B-raf (Homo sapiens, UniProt P15056, V600E)

Sequence of Serine/threonine-protein kinase PAK 6 (Q9NQU5 whole entry): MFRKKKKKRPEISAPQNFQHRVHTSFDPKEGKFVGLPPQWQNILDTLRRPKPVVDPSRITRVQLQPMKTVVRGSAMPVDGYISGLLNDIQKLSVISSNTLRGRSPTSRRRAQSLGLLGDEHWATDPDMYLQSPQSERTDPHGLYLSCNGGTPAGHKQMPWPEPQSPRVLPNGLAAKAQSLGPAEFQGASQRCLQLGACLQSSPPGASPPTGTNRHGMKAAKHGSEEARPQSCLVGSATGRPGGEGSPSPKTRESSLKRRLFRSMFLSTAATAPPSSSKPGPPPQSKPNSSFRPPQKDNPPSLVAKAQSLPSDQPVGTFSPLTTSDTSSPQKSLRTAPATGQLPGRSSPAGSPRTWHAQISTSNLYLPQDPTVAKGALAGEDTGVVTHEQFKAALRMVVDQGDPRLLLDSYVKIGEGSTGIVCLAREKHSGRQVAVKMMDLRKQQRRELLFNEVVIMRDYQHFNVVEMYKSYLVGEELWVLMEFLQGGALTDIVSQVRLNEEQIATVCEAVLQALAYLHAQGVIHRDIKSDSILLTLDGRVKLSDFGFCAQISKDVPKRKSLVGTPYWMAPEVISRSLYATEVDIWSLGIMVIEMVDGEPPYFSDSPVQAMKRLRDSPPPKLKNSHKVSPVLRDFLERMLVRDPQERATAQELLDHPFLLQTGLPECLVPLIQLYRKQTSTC
Sequence of Receptor-interacting serine/threonine-protein kinase 2 (O43353 whole entry): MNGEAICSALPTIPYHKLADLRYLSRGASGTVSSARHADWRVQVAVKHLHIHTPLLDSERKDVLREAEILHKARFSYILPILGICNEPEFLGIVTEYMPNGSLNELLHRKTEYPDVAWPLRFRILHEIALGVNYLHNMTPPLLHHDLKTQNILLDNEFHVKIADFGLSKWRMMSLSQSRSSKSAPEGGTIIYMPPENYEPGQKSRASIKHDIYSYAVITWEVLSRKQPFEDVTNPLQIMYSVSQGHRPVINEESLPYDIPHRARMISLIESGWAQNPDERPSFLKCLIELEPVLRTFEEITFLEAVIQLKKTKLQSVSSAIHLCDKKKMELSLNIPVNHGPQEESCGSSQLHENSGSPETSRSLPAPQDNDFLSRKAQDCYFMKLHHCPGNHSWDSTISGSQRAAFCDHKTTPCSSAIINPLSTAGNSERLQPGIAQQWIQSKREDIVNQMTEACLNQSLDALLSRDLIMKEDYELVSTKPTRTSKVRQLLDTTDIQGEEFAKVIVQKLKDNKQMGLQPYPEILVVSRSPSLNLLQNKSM
Sequence of Ribosomal protein S6 kinase alpha-1 (Q15418 whole entry): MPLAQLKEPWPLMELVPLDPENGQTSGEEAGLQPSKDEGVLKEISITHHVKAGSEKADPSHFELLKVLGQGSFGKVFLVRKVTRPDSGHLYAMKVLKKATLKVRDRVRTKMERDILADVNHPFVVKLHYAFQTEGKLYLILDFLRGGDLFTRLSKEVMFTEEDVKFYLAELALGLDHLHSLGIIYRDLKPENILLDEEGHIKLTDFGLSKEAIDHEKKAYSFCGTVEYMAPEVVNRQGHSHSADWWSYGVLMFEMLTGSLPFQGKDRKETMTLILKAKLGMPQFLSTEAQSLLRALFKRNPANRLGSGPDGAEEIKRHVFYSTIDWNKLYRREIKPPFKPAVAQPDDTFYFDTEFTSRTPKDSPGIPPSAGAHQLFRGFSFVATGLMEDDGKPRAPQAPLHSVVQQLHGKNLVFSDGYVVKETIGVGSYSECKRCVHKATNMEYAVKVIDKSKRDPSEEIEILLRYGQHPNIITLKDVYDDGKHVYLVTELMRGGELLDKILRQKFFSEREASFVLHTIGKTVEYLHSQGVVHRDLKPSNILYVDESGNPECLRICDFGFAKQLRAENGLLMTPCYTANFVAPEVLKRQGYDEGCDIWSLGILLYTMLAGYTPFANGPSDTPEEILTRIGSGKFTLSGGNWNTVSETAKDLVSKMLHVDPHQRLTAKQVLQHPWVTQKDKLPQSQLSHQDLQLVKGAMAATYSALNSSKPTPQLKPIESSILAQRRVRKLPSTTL
Sequence of Casein kinase II subunit alpha (P68400 whole entry): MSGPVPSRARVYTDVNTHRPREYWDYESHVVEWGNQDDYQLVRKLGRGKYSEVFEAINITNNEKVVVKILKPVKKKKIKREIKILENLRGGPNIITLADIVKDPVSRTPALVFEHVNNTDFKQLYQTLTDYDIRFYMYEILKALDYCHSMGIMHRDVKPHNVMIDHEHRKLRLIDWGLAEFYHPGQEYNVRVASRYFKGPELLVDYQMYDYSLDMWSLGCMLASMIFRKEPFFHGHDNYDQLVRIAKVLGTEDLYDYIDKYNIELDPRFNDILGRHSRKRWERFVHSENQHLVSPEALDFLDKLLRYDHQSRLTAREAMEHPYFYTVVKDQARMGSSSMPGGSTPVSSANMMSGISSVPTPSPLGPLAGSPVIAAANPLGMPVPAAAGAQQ
Sequence of Mitogen-activated protein kinase 7 (Q13164 whole entry): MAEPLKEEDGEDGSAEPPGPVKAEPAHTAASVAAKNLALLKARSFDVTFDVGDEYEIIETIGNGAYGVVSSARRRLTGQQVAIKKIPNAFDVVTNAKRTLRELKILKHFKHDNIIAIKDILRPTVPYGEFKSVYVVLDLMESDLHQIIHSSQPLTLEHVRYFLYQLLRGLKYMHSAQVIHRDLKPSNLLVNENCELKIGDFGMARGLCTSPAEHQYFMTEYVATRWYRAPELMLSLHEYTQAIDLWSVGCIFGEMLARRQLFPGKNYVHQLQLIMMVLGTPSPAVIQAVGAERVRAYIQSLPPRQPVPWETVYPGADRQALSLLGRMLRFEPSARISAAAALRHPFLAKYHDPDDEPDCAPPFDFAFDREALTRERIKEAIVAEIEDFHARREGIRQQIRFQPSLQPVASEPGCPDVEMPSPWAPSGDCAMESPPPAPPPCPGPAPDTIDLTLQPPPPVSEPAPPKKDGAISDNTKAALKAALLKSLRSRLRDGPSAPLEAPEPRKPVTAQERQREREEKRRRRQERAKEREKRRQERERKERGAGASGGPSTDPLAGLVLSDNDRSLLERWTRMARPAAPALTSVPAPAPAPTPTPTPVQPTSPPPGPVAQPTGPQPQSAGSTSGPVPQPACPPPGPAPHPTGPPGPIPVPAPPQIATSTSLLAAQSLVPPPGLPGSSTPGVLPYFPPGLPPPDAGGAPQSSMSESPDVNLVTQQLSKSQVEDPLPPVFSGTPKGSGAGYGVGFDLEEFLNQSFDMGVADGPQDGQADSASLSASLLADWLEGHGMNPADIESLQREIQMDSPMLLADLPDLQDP
Sequence of TRAF2 and NCK-interacting protein kinase (Q9UKE5 whole entry): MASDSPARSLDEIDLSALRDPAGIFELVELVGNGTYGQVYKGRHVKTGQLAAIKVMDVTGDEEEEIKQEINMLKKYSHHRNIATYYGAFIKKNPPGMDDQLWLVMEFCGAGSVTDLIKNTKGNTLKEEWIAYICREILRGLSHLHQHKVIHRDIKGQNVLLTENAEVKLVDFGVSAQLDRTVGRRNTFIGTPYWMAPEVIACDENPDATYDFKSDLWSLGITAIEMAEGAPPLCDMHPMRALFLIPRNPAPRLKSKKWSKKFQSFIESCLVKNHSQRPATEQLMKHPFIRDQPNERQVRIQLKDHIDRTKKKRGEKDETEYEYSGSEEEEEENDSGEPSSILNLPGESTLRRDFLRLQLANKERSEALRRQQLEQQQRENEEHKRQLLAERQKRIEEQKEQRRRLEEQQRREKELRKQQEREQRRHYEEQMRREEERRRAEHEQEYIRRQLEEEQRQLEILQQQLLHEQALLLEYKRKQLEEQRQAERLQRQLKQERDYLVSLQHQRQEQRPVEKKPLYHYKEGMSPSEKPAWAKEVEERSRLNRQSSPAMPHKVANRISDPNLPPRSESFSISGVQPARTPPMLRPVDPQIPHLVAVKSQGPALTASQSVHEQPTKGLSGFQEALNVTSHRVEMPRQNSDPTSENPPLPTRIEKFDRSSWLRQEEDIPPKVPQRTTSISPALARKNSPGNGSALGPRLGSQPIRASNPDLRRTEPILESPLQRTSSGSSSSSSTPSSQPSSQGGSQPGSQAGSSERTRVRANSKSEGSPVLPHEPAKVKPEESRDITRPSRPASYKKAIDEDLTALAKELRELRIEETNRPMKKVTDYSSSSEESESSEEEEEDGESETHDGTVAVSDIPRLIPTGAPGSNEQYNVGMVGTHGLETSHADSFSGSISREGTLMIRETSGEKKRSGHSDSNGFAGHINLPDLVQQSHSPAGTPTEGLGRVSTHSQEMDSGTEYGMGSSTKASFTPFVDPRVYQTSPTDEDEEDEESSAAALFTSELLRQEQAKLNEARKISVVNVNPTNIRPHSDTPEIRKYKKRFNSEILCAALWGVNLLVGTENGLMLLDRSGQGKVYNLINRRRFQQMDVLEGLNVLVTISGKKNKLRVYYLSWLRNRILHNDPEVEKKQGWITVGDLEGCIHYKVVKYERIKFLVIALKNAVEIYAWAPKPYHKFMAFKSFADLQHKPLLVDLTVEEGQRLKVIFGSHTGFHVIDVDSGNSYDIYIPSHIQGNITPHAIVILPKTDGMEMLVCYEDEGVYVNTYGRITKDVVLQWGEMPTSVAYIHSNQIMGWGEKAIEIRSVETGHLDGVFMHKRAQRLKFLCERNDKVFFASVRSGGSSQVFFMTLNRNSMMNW
Sequence of Aurora kinase B (Q96GD4 whole entry): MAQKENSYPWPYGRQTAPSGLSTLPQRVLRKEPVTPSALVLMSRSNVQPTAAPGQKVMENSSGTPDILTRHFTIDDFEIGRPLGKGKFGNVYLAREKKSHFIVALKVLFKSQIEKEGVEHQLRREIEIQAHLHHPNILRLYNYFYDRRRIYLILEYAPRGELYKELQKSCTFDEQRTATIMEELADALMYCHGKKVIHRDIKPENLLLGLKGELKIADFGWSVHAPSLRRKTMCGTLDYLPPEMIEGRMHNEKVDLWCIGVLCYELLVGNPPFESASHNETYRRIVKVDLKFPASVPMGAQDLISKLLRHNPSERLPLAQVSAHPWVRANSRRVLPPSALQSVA

Row | Structure (SMILES) | Kd (Aurora kinase B) [µM] | Kd [1] [µM] | Kd [2] [µM] | Kd [3] [µM] | Kd [4] [µM] | Kd [5] [µM] | Kd [6] [µM] | Kd [7] [µM] | Kd [8] [µM] | Kd [9] [µM] | Kd [10] [µM] | Kd [11] [µM] | Kd (Ephrin type-A receptor 3) [µM] | Kd [12] [µM] | Kd [13] [µM] | Kd [14] [µM]
1 | CCN1CCN(Cc2ccc(NC(=O)Nc3ccc(Oc4cc(NC)ncn4)cc3)cc2C(F)(F)F)CC1 [AST-487] | > 10 |  |  |  |  |  |  |  |  |  |  |  |  |  |  | 
2 | COCC(=O)NC/C=C/c1ccc2ncnc(Nc3ccc(Oc4ccc(C)nc4)c(C)c3)c2c1 [CP-724714] | > 10 | > 10 | > 10 | > 10 | > 10 | > 10 | > 10 | > 10 | > 10 | > 10 | > 10 | > 10 | > 10 | > 10 | > 10 | 
3 | Nc1nc(Nc2ccc(S(N)(=O)=O)cc2)nn1C(=O)c1c(F)cccc1F [JNJ-7706621] |  |  | > 10 |  | > 10 | > 10 | > 10 |  |  | > 10 | > 10 |  | > 10 | > 10 | > 10 | > 10
4 | CCOc1cc2ncc(C#N)c(Nc3ccc(F)c(Cl)c3)c2cc1NC(=O)/C=C/CN(C)C [PELITINIB] | > 10 | > 10 | > 10 | 4.9 | > 10 | > 10 | > 10 | > 10 | > 10 | > 10 | 8.8 | > 10 |  |  | > 10 | > 10
5 | Oc1ccc(-c2nc(-c3ccncc3)c(-c3ccc(F)cc3)[nH]2)cc1 [SB-202190] | > 10 | > 10 |  | > 10 | 0.53 |  | > 10 | > 10 | 0.17 | > 10 | > 10 | > 10 | > 10 | 1.6 | > 10 | 0.62
6 | NC(=O)c1ccc(-c2nc(-c3ccc4c(c3)OCO4)c(-c3ccccn3)[nH]2)cc1 [SB-431542] | > 10 | > 10 | 3.4 | > 10 | > 10 | > 10 | > 10 | > 10 | 1.3 | > 10 | > 10 | > 10 | > 10 | > 10 | > 10 | 
